Measurements reported in US20260259222A1, “METHOD OF DIAGNOSING WOUNDS” (TRAUMA CARE CONSULT TRAUMATOLOGISCHE FORSCHUNG …, priority 2022, published 2026).

How the values were obtained:
[1] = tested on: p-rpS6 in human dermal fibroblasts (HDFs); assay: in vitro scratch assay, p-rpS6-positive cells (immunofluorescence); assay type: cell-based; details: HDFs in basal medium; pre-treatment 10 to 30 min prior to scratch with 20 nM rapamycin or 10 μM U0126; fixed 30 min after scratch; vs DMSO
Description: (§1) To model a skin wound in vitro, cell cultures were subjected to a damage assay to monitor cellular response mechanisms. Commercially available human dermal fibroblasts (HDFs) were cultured in HDF medium (DMEM/F12 (Sigma Aldrich), 10% fetal bovine serum (Sigma Aldrich) and 4 mM L-Glutamine (Gibco)), subcultivated at 90% confluency and used for experiments below passage 15. Immortalised human keratinocytes (HaCaT) were maintained in HACAT medium (DMEM high glucose (Sigma Aldrich), 10% fetal bovine serum (Sigma Aldrich) and 2 mM L-Glutamine (Gibco) and subcultivated at 60% confluency. All cell culture experiments were performed in a humidified incubator at 37° C. and 5% CO2. […]
(§2) For immunofluorescence staining, the coverslips containing damaged and control cells were permeabilized using 0.5% Triton X100 for 5 min, washed three times with PBS for 5 min each, and blocked using PBS with 5% goat serum (VECS-1000, Vector Laboratories) for 1 h. […] For quantification of rpS6 and Erk phosphorylation, ten images per slide were taken along the scratch using an inverted microscope Nikon (Nikon Corporation, Tokyo, Japan) with set exposure times. These images were processed and quantified for total cell count and activated cell count (p-rpS6 or p-ERK positive cells) using set thresholds and particle analysis in Fiji. […]

[2] = tested on: p-Erk in human dermal fibroblasts (HDFs); assay: in vitro scratch assay, p-Erk-positive cells (immunofluorescence); assay type: cell-based; details: HDFs in basal medium; pre-treatment 10 to 30 min prior to scratch with 20 nM rapamycin or 10 μM U0126; fixed 30 min after scratch; vs DMSO
Description: as §1, §2

Which results are given for `N#CC(=C(/N)Sc1ccccc1N)/C(C#N)=C(\N)Sc1ccccc1N` [U0126]?
effect on p-rpS6 induction (number of cells positive for p-rpS6) in the scratch assay [1]: no significant effect on rpS6 phosphorylation; effect on Erk phosphorylation (number of cells positive for p-Erk) in the scratch assay [2]: almost completely abrogating p-Erk-positive cells
